Active and inactive are the calls of the source. The rule behind the calls is not given here.
Experiments:
[1] = Retention time of compound by RP-HPLC method; format: physicochemical
Escherichia coli [2] = test: Antibacterial activity against Escherichia coli ATCC 25922 incubated for 16 to 18 hrs by broth dilution assay; format: functional; conditions: time 16-18 hrs
Klebsiella pneumoniae = test: Antibacterial activity against Klebsiella pneumoniae ATCC 27736 incubated for 16 to 18 hrs by broth dilution assay; format: functional; conditions: time 16-18 hrs
Pseudomonas aeruginosa = test: Antibacterial activity against Pseudomonas aeruginosa ATCC BAA-427 incubated for 16 to 18 hrs by broth dilution assay; format: functional; conditions: time 16-18 hrs
Staphylococcus aureus [3] = test: Antibacterial activity against Staphylococcus aureus ATCC 25923 incubated for 16 to 18 hrs by broth dilution assay; format: functional; conditions: time 16-18 hrs
Bacillus subtilis = test: Antibacterial activity against Bacillus subtilis 6633 incubated for 16 to 18 hrs by broth dilution assay; format: functional; conditions: time 16-18 hrs
Staphylococcus aureus [4] = test: Antibacterial activity against methicillin-resistant Staphylococcus aureus 33591 incubated for 16 to 18 hrs by broth dilution assay; format: functional; conditions: time 16-18 hrs
Staphylococcus aureus [5] = test: Antibacterial activity against methicillin-resistant Staphylococcus aureus BAA-44 incubated for 16 to 18 hrs by broth dilution assay; format: functional; conditions: time 16-18 hrs
[6] = Hemolytic activity in human RBC measured after 40 mins by absorbance based assay; format: toxicity, cell-based, Erythrocyte; conditions: human red blood cells
Escherichia coli [7] = test: Bactericidal activity against Escherichia coli ATCC 25922 incubated for 16 to 18 hrs; format: functional; conditions: time 16-18 hrs
Escherichia coli [8] = test: Antibacterial activity against Escherichia coli ATCC 25922 incubated for 16 to 18 hrs in presence of 10 percent human serum by broth dilution assay; format: functional; conditions: time 16-18 hrs
Staphylococcus aureus [9] = test: Bactericidal activity against Staphylococcus aureus ATCC 25923 incubated for 16 to 18 hrs; format: functional; conditions: time 16-18 hrs
Staphylococcus aureus [10] = test: Antibacterial activity against Staphylococcus aureus ATCC 25923 incubated for 16 to 18 hrs in presence of 10 percent human serum by broth dilution assay; format: functional; conditions: time 16-18 hrs
[11] = Cytotoxicity against mouse 3T3-L1 cells assessed as cell viability at 100 uM incubated for 24 hrs by MTT assay relative to control; format: toxicity, cell-based; conditions: 3T3-L1 cells, read-out: Activity
[12] = Cytotoxicity against rat L6 cells assessed as cell viability at 100 uM incubated for 24 hrs by MTT assay relative to control; format: toxicity, cell-based; conditions: L6 cells, read-out: Activity
Escherichia coli [13] = test: Bactericidal activity against Escherichia coli ATCC 25922 at MIC incubated for 45 mins by time kill assay; format: functional, organism-based
Staphylococcus aureus [14] = test: Bactericidal activity against Staphylococcus aureus ATCC 25923 at MIC incubated for 45 mins by time kill assay; format: functional, organism-based
Escherichia coli [15] = test: Bactericidal activity against Escherichia coli ATCC 25922 at MIC incubated for 30 mins by time kill assay; format: functional, organism-based
Staphylococcus aureus [16] = test: Bactericidal activity against Staphylococcus aureus ATCC 25923 at MIC incubated for 30 mins by time kill assay; format: functional, organism-based
Escherichia coli [17] = test: Induction of resistance development in Escherichia coli ATCC 25922 assessed as fold increase in MIC at sub-MIC measured after 30 passages relative to control; format: functional
Staphylococcus aureus [18] = test: Induction of resistance development in Staphylococcus aureus ATCC 25923 assessed as fold increase in MIC at sub-MIC measured after 30 passages relative to control; format: functional
Escherichia coli [19] = test: Induction of resistance development in Escherichia coli ATCC 25922 assessed as fold increase in MIC at sub-MIC measured after 25 passages relative to control; format: functional
Staphylococcus aureus [20] = test: Induction of resistance development in Staphylococcus aureus ATCC 25923 assessed as fold increase in MIC at sub-MIC measured after 25 passages relative to control; format: functional
Staphylococcus aureus [21] = test: Induction of resistance development in methicillin-resistant Staphylococcus aureus 33591 assessed as fold increase in MIC at sub-MIC measured after 30 passages relative to control; format: functional
Staphylococcus aureus [22] = test: Induction of resistance development in methicillin-resistant Staphylococcus aureus BAA-44 assessed as fold increase in MIC at sub-MIC measured after 30 passages relative to control; format: functional
Escherichia coli [23] = test: Induction of membrane depolarization in Escherichia coli ATCC 25922 by diSC3-5 dye based analysis; format: functional, organism-based
Staphylococcus aureus [24] = test: Induction of membrane depolarization in Staphylococcus aureus ATCC 25923 by diSC3-5 dye based analysis; format: functional, organism-based
Escherichia coli [25] = test: Disruption of plasma membrane integrity in Escherichia coli ATCC 25922 by SYTOX-Green uptake assay; format: functional, organism-based
Staphylococcus aureus [26] = test: Disruption of plasma membrane integrity in Staphylococcus aureus ATCC 25923 by SYTOX-Green uptake assay; format: functional, organism-based
Escherichia coli [27] = test: Disruption of membrane integrity in Escherichia coli ATCC 25922 by PI staining based analysis; format: functional, organism-based
Staphylococcus aureus [28] = test: Disruption of membrane integrity in Staphylococcus aureus ATCC 25923 by PI staining based analysis; format: functional, organism-based
[29] = Hemolytic activity in human RBC assessed as disruption of membrane integrity by Alexa Fluor-Annexin V staining based analysis; format: toxicity, cell-based; conditions: erythrocyte
Escherichia coli [30] = test: Induction of cell membrane damage in Escherichia coli ATCC 25922 at 3 times MIC incubated for 60 mins by SEM analysis; format: functional, organism-based
Staphylococcus aureus [31] = test: Induction of cell membrane damage in Staphylococcus aureus ATCC 25923 at 3 times MIC incubated for 60 mins by SEM analysis; format: functional, organism-based
[32] = system: Mycolicibacterium smegmatis; test: Antitubercular activity against Mycobacterium smegmatis incubated for 24 hrs by rezasurin dye based assay; format: functional
[33] = system: Mycolicibacterium smegmatis; test: Antimycobacterial activity against Mycobacterium smegmatis assessed as reduction in bacterial growth at 2 times MIC pretreated for 1 hr followed by compound removal and subsequent culturing in fresh media without compound for 24 hrs measured after 4 days; format: functional, organism-based
[34] = system: Mycolicibacterium smegmatis; test: Disruption of cell membrane integrity in Mycobacterium smegmatis incubated for 2 hrs by EtBr uptake assay; format: functional, organism-based
[35] = Toxicity in mouse assessed as animal survival at 15 mg/kg, iv administered each day for 5 days measured after 7 days post-last dose; format: organism-based; conditions: in vivo, 120 h, time 5 day
[36] = Toxicity in mouse assessed as change in serum AST level at 15 mg/kg, iv administered each day for 5 days measured after 7 days post-last dose; format: organism-based; conditions: in vivo, 120 h, time 5 day
[37] = Toxicity in mouse assessed as change in serum ALT level at 15 mg/kg, iv administered each day for 5 days measured after 7 days post-last dose; format: organism-based; conditions: in vivo, 120 h, time 5 day
[38] = Toxicity in BALB/c mouse infected with Mycobacterium bovis BCG assessed as animal survival at 2.5 to 5 mg/kg, iv administered once a day for 2 weeks; format: organism-based; conditions: in vivo, 336 h, dose 2.5-5 mg/kg
[39] = Stability in 10 percent human serum assessed as compound remaining measured after 60 mins by RP-HPLC analysis; format: ADME, cell-free; conditions: 10% human serum, read-out: Stability
[40] = Toxicity in BALB/c mouse assessed as animal survival at 15 mg/kg, iv administered thrice at 2 hrs interval measured after 7 days; format: organism-based; conditions: in vivo, 168 h, time 7 day
[41] = Toxicity in BALB/c mouse assessed as change in AST level at 15 mg/kg, iv administered thrice at 2 hrs interval measured after 7 days; format: organism-based; conditions: in vivo, 168 h, time 7 day
[42] = Toxicity in BALB/c mouse assessed as change in ALT level at 15 mg/kg, iv administered thrice at 2 hrs interval measured after 7 days; format: organism-based; conditions: in vivo, 168 h, time 7 day
[43] = Toxicity in BALB/c mouse infected with Escherichia coli ATCC 25922 assessed as animal survival at 5 mg/kg, iv administered thrice at 1,3 and 5 hrs post-infection measured after 7 days; format: organism-based; conditions: in vivo, 168 h, time 7 day
[44] = Toxicity in BALB/c mouse infected with Escherichia coli ATCC 25922 assessed as animal survival at 2.5 mg/kg, iv administered thrice at 1,3 and 5 hrs post-infection measured after 7 days; format: organism-based; conditions: in vivo, 168 h, time 7 day
Escherichia coli [45] = test: Antibacterial activity against Escherichia coli ATCC 25922 infected in BALB/c mouse assessed as bacterial load in blood at 5 mg/kg, iv administered thrice at 1,3 and 5 hrs post-infection measured after 24 hrs post-last dose (Rvb ~ 4 x10^6 CFU/mL); format: functional; conditions: time 29 hrs
Escherichia coli [46] = test: Antibacterial activity against Escherichia coli ATCC 25922 infected in BALB/c mouse assessed as bacterial count in liver at 5 mg/kg, iv administered thrice at 1,3 and 5 hrs post-infection measured after 24 hrs post-last dose (Rvb ~ 2.3 x10^7 CFU/mL); format: functional; conditions: time 29 hrs
Escherichia coli [47] = test: Antibacterial activity against Escherichia coli ATCC 25922 infected in BALB/c mouse assessed as bacterial count in spleen at 5 mg/kg, iv administered thrice at 1,3 and 5 hrs post-infection measured after 24 hrs post-last dose (Rvb ~ 1.9 x10^7 CFU/mL); format: functional; conditions: time 29 hrs
Escherichia coli [48] = test: Antibacterial activity against Escherichia coli ATCC 25922 infected in BALB/c mouse assessed as bacterial count in kidney at 5 mg/kg, iv administered thrice at 1,3 and 5 hrs post-infection measured after 24 hrs post-last dose (Rvb ~ 1.8 x10^7 CFU/mL); format: functional; conditions: time 29 hrs
Escherichia coli [49] = test: Antibacterial activity against Escherichia coli ATCC 25922 infected in BALB/c mouse assessed as bacterial count in blood at 5 mg/kg, iv administered thrice at 1,3 and 5 hrs post-infection measured after 24 hrs post-last dose (Rvb ~ 9.6 x10^6 CFU/mL); format: functional; conditions: time 29 hrs

## H-VLGRVLGRVLGRVLGR-OH
[1]
  Retention_time: 20.54 min
Escherichia coli [2]
  MIC: 1.8 µM
Klebsiella pneumoniae
  MIC: 3.6 µM
Pseudomonas aeruginosa
  MIC: 7.3 µM
Staphylococcus aureus [3]
  MIC: 3.6 µM
Bacillus subtilis
  MIC: 3.6 µM
Staphylococcus aureus [4]
  MIC: 7.3 µM
Staphylococcus aureus [5]
  MIC: 3.6 µM
[6]
  HC50 at 40 min: 2 mM
Escherichia coli [7]
  MBC: 3.6 µM
Escherichia coli [8]
  MIC: 14.4 µM
Staphylococcus aureus [9]
  MBC: 3.6 µM
Staphylococcus aureus [10]
  MIC: 14.4 µM
[11]
  viability at 24 h, 100 µM: 75%
[12]
  viability at 24 h, 100 µM: 75%
Escherichia coli [13]
  Activity: Active
Staphylococcus aureus [14]
  Activity: Active
Escherichia coli [15]
  Activity: Active; Emerged As Swiftest Molecule
Staphylococcus aureus [16]
  Activity: Active; Emerged As Swiftest Molecule
Escherichia coli [17]
  fold change (FC): 4
Staphylococcus aureus [18]
  fold change (FC): 4
Escherichia coli [19]
  fold change (FC): 2
Staphylococcus aureus [20]
  fold change (FC): 2
Staphylococcus aureus [21]
  fold change (FC): 4
Staphylococcus aureus [22]
  fold change (FC): 4
Escherichia coli [23]
  Activity: Active
Staphylococcus aureus [24]
  Activity: Active
Escherichia coli [25]
  Activity: Active
Staphylococcus aureus [26]
  Activity: Active
Escherichia coli [27]
  Activity: Active
Staphylococcus aureus [28]
  Activity: Active
[29]
  Activity: Non-toxic
Escherichia coli [30]
  Activity: Active
Staphylococcus aureus [31]
  Activity: Active
[32]
  MIC: 2.5 µM
[33]
  Activity: Active
[34]
  Activity: inactive
[35]
  Activity: Non-toxic
[36]
  Activity: Non-toxic
[37]
  Activity: Non-toxic
[38]
  Activity: Non-toxic

## H-GRLVGRLVGRLVGRLV-OH
[1]
  Retention_time: 20.24 min
Escherichia coli [2]
  MIC: 1.8 µM
Klebsiella pneumoniae
  MIC: 3.6 µM
Pseudomonas aeruginosa
  MIC: 7.3 µM
Staphylococcus aureus [3]
  MIC: 1.8 µM
Bacillus subtilis
  MIC: 1.8 µM
Staphylococcus aureus [4]
  MIC: 1.8 µM
Staphylococcus aureus [5]
  MIC: 3.6 µM
[6]
  HC50 at 40 min: 2 mM
Escherichia coli [7]
  MBC: 1.8 µM
Escherichia coli [8]
  MIC: 1.8 µM
Staphylococcus aureus [9]
  MBC: 1.8 µM
Staphylococcus aureus [10]
  MIC: 1.8 µM
[11]
  viability at 24 h, 100 µM: 75%
[12]
  viability at 24 h, 100 µM: 75%
Escherichia coli [13]
  Activity: Active
Staphylococcus aureus [14]
  Activity: Active
Escherichia coli [15]
  Activity: Active; Emerged As Swiftest Molecule
Staphylococcus aureus [16]
  Activity: Active; Emerged As Swiftest Molecule
Escherichia coli [17]
  fold change (FC): 2
Staphylococcus aureus [18]
  fold change (FC): 2
Staphylococcus aureus [21]
  fold change (FC): 2
Staphylococcus aureus [22]
  fold change (FC): 2
Escherichia coli [23]
  Activity: Active
Staphylococcus aureus [24]
  Activity: Active
Escherichia coli [25]
  Activity: Active
Staphylococcus aureus [26]
  Activity: Active
Escherichia coli [27]
  Activity: Active
Staphylococcus aureus [28]
  Activity: Active
[29]
  Activity: Non-toxic
Escherichia coli [30]
  Activity: Active
Staphylococcus aureus [31]
  Activity: Active
[39]
  remaining at 1 h: ~80%
[40]
  Activity: Non-toxic
[41]
  Activity: Non-toxic
[42]
  Activity: Non-toxic
[43]
  Survival: 100%
[44]
  Survival: 60%
Escherichia coli [45]
  Activity: ~800 CFU/ml
Escherichia coli [46]
  Activity: 1864 CFU/ml
Escherichia coli [47]
  Activity: 1652 CFU/ml
Escherichia coli [48]
  Activity: 2908 CFU/ml
Escherichia coli [49]
  Activity: 1020 CFU/ml
[32]
  MIC: 2.5 µM
[33]
  Activity: Active
[34]
  Activity: inactive
[35]
  Activity: Non-toxic
[36]
  Activity: Non-toxic
[37]
  Activity: Non-toxic
[38]
  Activity: Non-toxic

Reference: ChEMBL document CHEMBL6087460, “Generating a Peptide Library Using the Repeats of Amino Acid Scaffolds Created by Sliding the Framework of a 7-mer Human Chemerin Segment and Discovery of Potent Antibacterial and Antimycobacterial Peptides” (J Med Chem, 2025)
